Measured values from ChEMBL document CHEMBL3352190, “New benzothieno[3,2-d]-1,2,3-triazines with antiproliferative activity: synthesis, spectroscopic studies, and biological activity” (2014).
The source made the active and inactive calls. The rule behind the calls is not given here.

Key:
HeLa [1] = assay: Cytotoxicity against human HeLa cells assessed as reduction in cell viability after 24 to 48 hrs by MTT assay; format: functional
HeLa [2] = assay: Cytotoxicity against human HeLa cells assessed as reduction in cell viability by MTT assay; format: functional, cell-based; conditions: TDE = time-dependent effect
HeLa [3] = assay: Cytotoxicity against human HeLa cells assessed as reduction in cell viability after 24 hrs by MTT assay; format: functional
HeLa [4] = assay: Cytotoxicity against human HeLa cells assessed as reduction in cell viability after 48 hrs by MTT assay; format: functional
Calf thymus DNA [5] = assay: Binding affinity to calf thymus DNA assessed as DNA intercalation by viscosity study; format: nucleic-acid assay; conditions: Bos taurus
Calf thymus DNA [6] = assay: Binding affinity to calf thymus DNA assessed by UV-vis spectroscopy; format: nucleic-acid assay; conditions: Bos taurus
Calf thymus DNA [7] = assay: Binding affinity to calf thymus DNA assessed as change in CD spectrum of DNA by CD titration method; format: nucleic-acid assay; conditions: Bos taurus
Calf thymus DNA [8] = assay: Binding affinity to calf thymus DNA assessed as hypochromic effect by UV-vis spectroscopy; format: nucleic-acid assay; set-up: concentration or dose not given beside the values; conditions: Bos taurus
HeLa [9] = assay: Cytotoxicity against human HeLa cells assessed as reduction in plasma membrane integrity at 1 to 50 uM by LDH release assay; format: functional, cell-based
HeLa [10] = assay: Cell cycle arrest in human HeLa cells at 4.4 uM after 24 hrs by flow cytometry; format: functional, cell-based
HeLa [11] = assay: Cell cycle arrest in human HeLa cells assessed as accumulation of G0/G1 phase after 12 to 24 hrs by flow cytometry; format: functional, cell-based
HeLa [12] = assay: Cell cycle arrest in human HeLa cells assessed as accumulation of cells at sub-G1 phase at 8.8 uM after 24 hrs by flow cytometry; format: functional, cell-based
HeLa [13] = assay: Cell cycle arrest in human HeLa cells at 8.8 uM after 12 hrs by flow cytometry; format: functional, cell-based
HeLa [14] = assay: Cell cycle arrest in human HeLa cells assessed as supression of G2/M phase after 12 to 24 hrs by flow cytometry; format: functional, cell-based

SMILES | GI50 (HeLa [1]) [µM] | Activity (HeLa [2]) | Activity (HeLa [1]) | GI50 (HeLa [3]) [µM] | GI50 (HeLa [4]) [µM] | Activity (Calf thymus DNA [5]) | Kb (Calf thymus DNA [6]) | Activity (Calf thymus DNA [7]) | Activity (Calf thymus DNA [8]) [%] | Activity (HeLa [9]) | Activity (HeLa [10]) | Activity (HeLa [11]) | Activity (HeLa [12]) | Activity (HeLa [13]) | Activity (HeLa [14])
Cn1nnc2c(C(N)=O)ncn2c1=O [TEMOZOLOMIDE] | > 50 | – | – | – | – | – | – | – | – | – | – | – | – | – | –
CCOC(=O)c1sc2ccccc2c1/N=N/Nc1ccc(F)c(Cl)c1 | – | tde | Dose-dependent effect | 31.4 | 12.9 | inactive | – | – | – | – | – | – | – | – | –
O=c1c2sc3ccccc3c2nnn1-c1ccccc1 | – | tde | Dose-dependent effect | 18.6 | 9.79 | Active | 6.67 ×10⁵ /M | inactive | 85 | – | – | – | – | – | –
CCOC(=O)c1sc2ccccc2c1/N=N/Nc1ccc(C)cc1 | – | tde | Dose-dependent effect | 42.1 | 18.3 | inactive | – | – | – | – | – | – | – | – | –
COc1cc(-n2nnc3c(sc4ccccc43)c2=O)cc(OC)c1OC | – | tde | Dose-dependent effect | 20.7 | 9.44 | Active | 9.84 ×10⁵ /M | inactive | 29 | – | – | – | – | – | –
CCOC(=O)c1sc2ccccc2c1/N=N/Nc1ccccc1 | – | tde | Dose-dependent effect | 49.3 | 26.1 | Active | 9.87 ×10⁵ /M | Active | 12 | – | – | – | – | – | –
Cc1ccc(-n2nnc3c(sc4ccccc43)c2=O)cc1 | – | tde | Dose-dependent effect | 5.32 | 1.88 | Active | 1.23 ×10⁵ /M | Active | 25 | inactive | – | – | – | – | –
CCOC(=O)c1sc2ccccc2c1/N=N/Nc1ccc(OC)cc1 | – | tde | Dose-dependent effect | 49.1 | 17.4 | – | – | – | – | – | – | – | – | – | –
COc1ccc(-n2nnc3c(sc4ccccc43)c2=O)cc1 | – | tde | Dose-dependent effect | 4.37 | 1.24 | Active | 9.72 ×10⁴ /M | Active | 28 | inactive | Active | Dose-dependent effect | Active | Active | Dose-dependent effect
CCOC(=O)c1sc2ccccc2c1/N=N/Nc1cc(OC)c(OC)c(OC)c1 | – | tde | Dose-dependent effect | 22.8 | 14.4 | Active | 4.14 ×10⁶ /M | inactive | 11 | – | – | – | – | – | –
O=c1c2sc3ccccc3c2nnn1-c1ccc(F)c(Cl)c1 | – | tde | Dose-dependent effect | 6.35 | 2.45 | inactive | – | – | – | inactive | – | – | – | – | –
CN(C)/N=N/c1[nH]cnc1C(N)=O [DACARBAZINE] | > 50 | – | – | – | – | – | – | – | – | – | – | – | – | – | –
